In PubChem BioAssay (NCI):
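In this assay, cells in 96-well plates receive the compound at five concentrations for 48 hours. Endpoints are linearly interpolated between the surrounding concentrations. GI50 is the concentration that inhibits growth by half. TGI marks complete inhibition of growth.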

Tests used:
Assay in all cases: inhibition of tumour cell growth, NCI panel, 48 h
RPMI-8226 leukemia = tested on: RPMI-8226 leukemia
NCI/ADR-RES ovarian = tested on: NCI/ADR-RES ovarian
RXF 393 renal = tested on: RXF 393 renal
MALME-3M melanoma = tested on: MALME-3M melanoma
NCI-H226 lung = tested on: NCI-H226 lung
MCF7 breast = tested on: MCF7 breast
OVCAR-4 ovarian = tested on: OVCAR-4 ovarian
SF-539 CNS = tested on: SF-539 CNS
T-47D breast = tested on: T-47D breast
COLO 205 colon = tested on: COLO 205 colon
OVCAR-3 ovarian = tested on: OVCAR-3 ovarian
CAKI-1 renal = tested on: CAKI-1 renal
KM12 colon = tested on: KM12 colon
MDA-MB-231 breast = tested on: MDA-MB-231 breast
TK-10 renal = tested on: TK-10 renal
SNB-19 CNS = tested on: SNB-19 CNS
U251 CNS = tested on: U251 CNS
K-562 leukemia = tested on: K-562 leukemia
HL-60(TB) leukemia = tested on: HL-60(TB) leukemia
SW-620 colon = tested on: SW-620 colon
SK-MEL-2 melanoma = tested on: SK-MEL-2 melanoma
SNB-75 CNS = tested on: SNB-75 CNS
SR leukemia = tested on: SR leukemia
SF-268 CNS = tested on: SF-268 CNS
MDA-MB-435 = tested on: MDA-MB-435
786-0 renal = tested on: 786-0 renal
OVCAR-8 ovarian = tested on: OVCAR-8 ovarian
HCT-116 colon = tested on: HCT-116 colon
HS 578T breast = tested on: HS 578T breast
CCRF-CEM leukemia = tested on: CCRF-CEM leukemia
UACC-257 melanoma = tested on: UACC-257 melanoma
HT29 colon = tested on: HT29 colon
MOLT-4 leukemia = tested on: MOLT-4 leukemia
EKVX NSCLC = tested on: EKVX NSCLC
ACHN renal = tested on: ACHN renal
PC-3 prostate = tested on: PC-3 prostate
SN12C renal = tested on: SN12C renal
NCI-H522 lung = tested on: NCI-H522 lung
NCI-H460 lung = tested on: NCI-H460 lung
OVCAR-5 ovarian = tested on: OVCAR-5 ovarian
HCC-2998 colon = tested on: HCC-2998 colon
SK-MEL-5 melanoma = tested on: SK-MEL-5 melanoma
A498 renal = tested on: A498 renal
LOX IMVI melanoma = tested on: LOX IMVI melanoma
NCI-H23 lung = tested on: NCI-H23 lung
SK-MEL-28 melanoma = tested on: SK-MEL-28 melanoma
BT-549 breast = tested on: BT-549 breast
A549 NSCLC = tested on: A549 NSCLC
SK-OV-3 ovarian = tested on: SK-OV-3 ovarian
HCT-15 colon = tested on: HCT-15 colon
IGROV1 ovarian = tested on: IGROV1 ovarian
UACC-62 melanoma = tested on: UACC-62 melanoma
HOP-62 NSCLC = tested on: HOP-62 NSCLC
HOP-92 NSCLC = tested on: HOP-92 NSCLC
SF-295 CNS = tested on: SF-295 CNS
DU-145 prostate = tested on: DU-145 prostate
UO-31 renal = tested on: UO-31 renal

O=C(NCCN1CCOCC1)OCc1nc2nc(Cl)nc(N3CCOCC3)c2[nH]1
GI50 (RPMI-8226 leukemia): 0.701 µM
TGI (RPMI-8226 leukemia): > 100 µM
GI50 (NCI/ADR-RES ovarian): 0.566 µM
TGI (NCI/ADR-RES ovarian): > 100 µM
GI50 (RXF 393 renal): 1.87 µM
TGI (RXF 393 renal): 6.78 µM
GI50 (MALME-3M melanoma): 4.41 µM
TGI (MALME-3M melanoma): > 100 µM
GI50 (NCI-H226 lung): 3.14 µM
TGI (NCI-H226 lung): > 100 µM
GI50 (MCF7 breast): 2.02 µM
TGI (MCF7 breast): > 100 µM
GI50 (OVCAR-4 ovarian): 9.69 µM
TGI (OVCAR-4 ovarian): > 100 µM
GI50 (SF-539 CNS): 0.402 µM
TGI (SF-539 CNS): 3.29 µM
GI50 (T-47D breast): > 100 µM
TGI (T-47D breast): > 100 µM
GI50 (COLO 205 colon): > 100 µM
TGI (COLO 205 colon): > 100 µM
GI50 (OVCAR-3 ovarian): 1.15 µM
TGI (OVCAR-3 ovarian): 7.18 µM
GI50 (CAKI-1 renal): 3.07 µM
TGI (CAKI-1 renal): > 100 µM
GI50 (KM12 colon): 1.96 µM
TGI (KM12 colon): > 100 µM
GI50 (MDA-MB-231 breast): 2.91 µM
TGI (MDA-MB-231 breast): > 100 µM
GI50 (TK-10 renal): > 100 µM
TGI (TK-10 renal): > 100 µM
GI50 (SNB-19 CNS): 4.18 µM
TGI (SNB-19 CNS): > 100 µM
GI50 (U251 CNS): 4.09 µM
TGI (U251 CNS): > 100 µM
GI50 (K-562 leukemia): 2.43 µM
TGI (K-562 leukemia): > 100 µM
GI50 (HL-60(TB) leukemia): 1.61 µM
TGI (HL-60(TB) leukemia): 6.83 µM
GI50 (SW-620 colon): 2.68 µM
TGI (SW-620 colon): > 100 µM
GI50 (SK-MEL-2 melanoma): 6.66 µM
TGI (SK-MEL-2 melanoma): > 100 µM
GI50 (SNB-75 CNS): 4.12 µM
TGI (SNB-75 CNS): > 100 µM
GI50 (SR leukemia): 0.728 µM
TGI (SR leukemia): > 100 µM
GI50 (SF-268 CNS): 3.02 µM
TGI (SF-268 CNS): > 100 µM
GI50 (MDA-MB-435): 0.651 µM
TGI (MDA-MB-435): 2.94 µM
GI50 (786-0 renal): 23.7 µM
TGI (786-0 renal): > 100 µM
GI50 (OVCAR-8 ovarian): 2.09 µM
TGI (OVCAR-8 ovarian): > 100 µM
GI50 (HCT-116 colon): 2.41 µM
TGI (HCT-116 colon): > 100 µM
GI50 (HS 578T breast): 2.85 µM
TGI (HS 578T breast): > 100 µM
GI50 (CCRF-CEM leukemia): 2.9 µM
TGI (CCRF-CEM leukemia): > 100 µM
GI50 (UACC-257 melanoma): > 100 µM
TGI (UACC-257 melanoma): > 100 µM
GI50 (HT29 colon): > 100 µM
TGI (HT29 colon): > 100 µM
GI50 (MOLT-4 leukemia): 3.32 µM
TGI (MOLT-4 leukemia): > 100 µM
GI50 (EKVX NSCLC): > 100 µM
TGI (EKVX NSCLC): > 100 µM
GI50 (ACHN renal): 0.901 µM
TGI (ACHN renal): > 100 µM
GI50 (PC-3 prostate): 3.38 µM
TGI (PC-3 prostate): > 100 µM
GI50 (SN12C renal): 2.16 µM
TGI (SN12C renal): > 100 µM
GI50 (NCI-H522 lung): 1.11 µM
TGI (NCI-H522 lung): > 100 µM
GI50 (NCI-H460 lung): 3.29 µM
TGI (NCI-H460 lung): > 100 µM
GI50 (OVCAR-5 ovarian): 4.42 µM
TGI (OVCAR-5 ovarian): > 100 µM
GI50 (HCC-2998 colon): 3.77 µM
TGI (HCC-2998 colon): > 100 µM
GI50 (SK-MEL-5 melanoma): 2.1 µM
TGI (SK-MEL-5 melanoma): 4.72 µM
GI50 (A498 renal): 1.68 µM
TGI (A498 renal): 6.66 µM
GI50 (LOX IMVI melanoma): 0.382 µM
TGI (LOX IMVI melanoma): > 100 µM
GI50 (NCI-H23 lung): 3.56 µM
TGI (NCI-H23 lung): > 100 µM
GI50 (SK-MEL-28 melanoma): > 100 µM
TGI (SK-MEL-28 melanoma): > 100 µM
GI50 (BT-549 breast): 3.48 µM
TGI (BT-549 breast): > 100 µM
GI50 (A549 NSCLC): 9.33 µM
TGI (A549 NSCLC): > 100 µM
GI50 (SK-OV-3 ovarian): 5.28 µM
TGI (SK-OV-3 ovarian): > 100 µM
GI50 (HCT-15 colon): 3.09 µM
TGI (HCT-15 colon): > 100 µM
GI50 (IGROV1 ovarian): 2.7 µM
TGI (IGROV1 ovarian): > 100 µM
GI50 (UACC-62 melanoma): 2.98 µM
TGI (UACC-62 melanoma): > 100 µM
GI50 (HOP-62 NSCLC): 4.93 µM
TGI (HOP-62 NSCLC): > 100 µM
GI50 (HOP-92 NSCLC): 1.41 µM
TGI (HOP-92 NSCLC): > 100 µM
GI50 (SF-295 CNS): 5.77 µM
TGI (SF-295 CNS): > 100 µM
GI50 (DU-145 prostate): 2.37 µM
TGI (DU-145 prostate): 7.79 µM
GI50 (UO-31 renal): 4.25 µM
TGI (UO-31 renal): > 100 µM
